Reference: US7514404B2, “PNA-neamine conjugates and methods for producing and using the same” (University of Medicine & Dentistry of New Jersey, priority 2004, dated 2009)

Test system: pseudotyped HIV-1 virions carrying the firefly luciferase reporter gene
Experiment: Luciferase activity in CEM cells infected with pseudotyped HIV-1 virions
Format: cell-based
Settings: concentrations greater than 5 μM in the culture medium
Protocol: The ability of a TAR-specific PNA-neamine conjugate to block HIV-1 production when supplemented in the culture medium was also examined. Lymphocyte CEM cells were infected with pseudotyped HIV-1 virions carrying the firefly luciferase reporter gene. The infected cells were incubated with varying concentration of PNATAR-neamine conjugate 60 or naked PNATAR during 48 hours at 37° C. and lysed to measure firefly luciferase activity. Anti-TAR PNA-transportan conjugate (PNA-membrane-permeating peptide conjugate) known to inhibit HIV-1 replication (Kaushik, et al. (2002) supra) was used as a positive control. […] Supplementation of naked PNA of SEQ ID NO:1 in the culture medium had no influence on luciferase gene expression.
Isolation of HIV-1 Virions. The pseudotyped HIV-1 virions were isolated from the culture supernatant of 293T cells transfected with pHIV-1JR-CSF-Lucenv (-) and pVSV-G clones. The culture supernatant (500 mL) was filtered through 0.45 μm pore size membrane and centrifuged at 70,000 g for 45 minutes. […] HIV-1 virions were quantified by determining the RNA copy number in the sample using NUCLISENS® HIV-1-QT Amplication Kit (Organon Teknika, Durham, N.C.). […] The virion number estimated from the RNA copy number was in agreement with the number determined by p24 quantification (1 pg p24 per 12500 virions). […]

NC[C@H]1O[C@H](O[C@H]2[C@H](O)[C@@H](O)[C@H](N)C[C@@H]2N)[C@H](N)[C@@H](O)[C@@H]1O [neamine core, neamine]
inhibition of HIV-1 replication: did not inhibit
